Assay results as given in patent US20150359884A1, “MULTI-PHOTON ISOMERISATION OF COMBRETASTATINS AND THEIR USE IN THERAPY” (priority 2011, published 2015).

Test: Picosecond time-resolved infrared (TRIR) spectroscopy of excited states
Type: physicochemical
Procedure: The ultrafast time-resolved infrared (TRIR) experiments were performed on the ‘ULTRA’ laser system at the Science and Technology Facilities Council Rutherford Appleton Laboratory. The capabilities of the ULTRA instrument are described in detail elsewhere. Briefly, a chirped pulse amplified titanium:sapphire laser operating at 10 kHz repetition rate produced 40-80 fs duration pulses at a wavelength of 800 nm. The UV excitation pulse was generated from third harmonic generation of the 800 nm output of the amplifier with ˜50 fs duration at 266 nm, irradiating samples with a 1 μJ, 100 μm diameter beam. The mid-IR probe pulse was generated using ˜0.4 mJ of the 800 nm femtosecond output to pump an optical parametric amplifier, and difference frequency mixing of the signal and idler components. The mid-IR probe output pulses had ˜500 cm-1 bandwidth and ˜50 fs pulse duration. The UV pulses were polarized at a magic angle to the IR probe laser polarization. The timing between the pump and probe was performed using a PCcontrolled optical delay line. The sample in solution was placed between two 25 mm diameter CaF2 plates in a rasterscanned Harrick cell to limit irradiation of the sample by multiple pulses. The optical path of the sample between the two windows was controlled using a 100 μm PTFE spacer and the solution flowed using a peristaltic pump. The intensity of the transmitted mid-IR light was dispersed by a grating onto a pair of 128-element mercury-cadmium telluride array detectors (IR Associates), providing full (i.e. ˜500 cm-1) spectral coverage with every laser pulse. The overall instrument response time was ˜200 fs. A reference spectrum of the laser pulse (before the Harrick cell) was accumulated on a third, 64-element array detector and was used to remove the effects of laser fluctuations from the transient absorption data. Ground-state FTIR spectra were recorded using a Nicolet Avatar 360 spectrometer.
FIGS. 12 and 13 show the TRIR spectra of both isomers of CA4 following ultrafast electronic excitation using 266 nm, with the ground-state FTIR spectra shown beneath the time resolved data for comparison. To date there has been little characterization of combretastatins by infrared spectroscopy. However, the ground-state FTIR spectra have obvious similarities with stilbene and on this basis we assign the 1586/1581 and 1510/1509 cm-1 bands in E-CA4/Z-CA4 to the v8a ring stretches of the phenyl groups and v19a ring stretch with additional contributions from C—H in-plane bending. In the excited state spectra, there are negative absorption bands corresponding to bleaching of the ground-state absorptions and both the E- and Z-isomers are dominated by transient bands between 1350 and 1500 cm-1. At early times the transient bands show rapid shifting over about 10 cm-1 to higher wavenumbers associated with rapid ‘cooling’ of excess vibrational energy following electronic excitation as commonly observed in other molecular systems including DNA [26] and for the C═C stretching band of E-stilbene observed by time-resolved resonance Raman spectroscopy. It is also notable that for E-CA4 at pump-probe delays up to 20 ps, the intensities of the transient bands increase and this is most likely due to molecular rearrangements taking place lowering the overall symmetry of the molecule and increasing the cross-sections of these IR active modes. […]

[1] = dichloromethane, 266 nm excitation

Question: What does the source list for COc1ccc(/C=C/c2cc(OC)c(OC)c(OC)c2)cc1O [E-CA4, (E)-1-(3′,4′,5′-Trimethoxyphenyl)-2-(4″-methoxy-3″-hydroxy-phenyl)ethene]?
Answer: Excited state decay, longer lifetime (relaxed excited state) [1]: 503±56 ps; Excited state decay, shorter lifetime (biexponential fit) [1]: 6.5±0.46 ps; Lifetime of the relaxed excited state measured by TRIR (methanol): 230±14 ps
